Data as given in patent publication US20130023555A1, “KINASE INHIBITOR WITH IMPROVED SOLUBILITY PROFILE” (Abbott Laboratories, priority 2011, published 2013).

Biological target: T1, CYP3A4 (Homo sapiens, UniProt P08684)
T1 construct: The incubations consisted of human liver microsomal protein at 0.4 mg/ml; from tissue; host or cells: human liver microsomes
Test: CYP 3A4 Assay (Luc, luminescence, human liver microsomes)
Format: in vitro ADME
Conditions: human liver microsomes 0.4 mg/mL, substrate LUC-LIPA
Description: Each assay was preformed in ½ well plates. Test compounds were examined at six concentrations in DMSO that were serial diluted to: 2, 0.6, 0.2, 0.07, 0.02, and 0.007 mM (from left to right) and at 100×; 0.5 ul of these dilutions were added to two empty assay plates (resulting in final assay concentrations of 20, 6, 2, 0.7, 0.2, and 0.07 uM. The control and vehicle were added to the plate at 100× with the same dilution scheme.
The incubations consisted of human liver microsomal protein at 0.4 mg/ml in 100 mM KPO4 buffer, 125 uM NADPH and Regeneration mix in phosphate buffer at pH 7.4.
CYP3A4 requires a pre-incubation using the following recipe:
• CYP3A4—5 μM LUC-LIPA in 100 mM phosphate buffer pH 7.4 • Assay Procedure for CYP3A4: • 1. 40 uL of the Pre-incubation Mixture was added to all wells of the assay plates. • 2. Plates were pre-incubated for 10 minutes at 37° C., with shaking or rocking. (No pre-read is necessary for the luminescence assays CYP2C9 and CYP3A4). • 3. 10 μL of Substrate Solution was added to all wells of the assay plates. • 4. Plates were incubated for an additional 25 minutes at 37° C., with shaking or rocking. • 5. added 50 μl of stop/developer from respective kits, and incubated for 20 minutes to 2 hours with shaking at room temperature prior to reading. […]

T1 sequence (P08684 whole entry): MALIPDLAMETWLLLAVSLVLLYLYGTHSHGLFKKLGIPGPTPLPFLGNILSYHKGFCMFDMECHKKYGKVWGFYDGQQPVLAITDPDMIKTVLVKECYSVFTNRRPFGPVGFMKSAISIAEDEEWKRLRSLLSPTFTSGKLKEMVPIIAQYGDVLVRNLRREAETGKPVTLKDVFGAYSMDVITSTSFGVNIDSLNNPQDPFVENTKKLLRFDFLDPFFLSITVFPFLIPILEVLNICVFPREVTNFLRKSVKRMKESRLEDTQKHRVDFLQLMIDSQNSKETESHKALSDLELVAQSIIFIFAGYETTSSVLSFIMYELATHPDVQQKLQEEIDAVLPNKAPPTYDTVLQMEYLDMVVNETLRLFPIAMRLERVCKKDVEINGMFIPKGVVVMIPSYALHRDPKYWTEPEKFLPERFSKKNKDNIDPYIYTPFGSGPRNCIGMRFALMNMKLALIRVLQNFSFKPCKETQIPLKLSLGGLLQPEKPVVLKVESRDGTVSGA

IC50: > 20 µM
SMILES: CNC(=O)c1cnc(N)c2c(-c3ccc(NC(=O)Nc4cccc(C)c4)cc3)csc12 [Example 2, 4-amino-N-methyl-3-(4-{[(3-methylphenyl)carbamoyl]amino}phenyl)thieno[3,2-c]pyridine-7-carboxamide]
